# Literature values as cited in PubChem BioAssay AID1259409 (Chemical Carcinogenesis Research Information System (CCRIS), 2018).
# Tested on: rodent chemically induced tumor inhibition, incidence and multiplicity
# Experiment: CCRIS tumor inhibitor studies
# Conditions: Carcinogen: 7,12-DIMETHYLBENZ[A]ANTHRACENE, 57-97-6, Route [Inhibitor]: DERMAL, Species: MOUSE, Strain/Sex: CD-1/FEMALE, Target Tissue: Type of Lesion: SKIN: PAPILLOMA, Dose [Carcinogen]: 20 NMOL IN 200 µL ACETONE ONCE
smiles,measurement,setting,value
CC1=C[C@H]2[C@@]3(O)[C@H](C)C[C@]4(OC(=O)Cc5ccccc5)C([C@@H]3C=C(CO)C[C@]2(O)C1=O)C4(C)C (some centres not stated),"tumour outcome (control, treated, inhibition, significance)","Dose [Inhibitor]: 0, 2.14 NMOL 15 D POST INITIATION DOSE FOLLOWED BY 2.14 NMOL 2/WK DURING WK 3-22 APPLIED 15 MIN PRIOR TO EACH PROMOTION","100%, 82%, 18%, not calculated"
same,"tumour outcome (control, treated, inhibition, significance)","Dose [Inhibitor]: 0, 2.14 NMOL 15 D POST INITIATION DOSE FOLLOWED BY 2.14 PMOL 2/WK DURING WK 3-22 APPLIED 15 MIN PRIOR TO EACH PROMOTION","100%, 97%, 3%, not calculated"
same,"tumour outcome (control, treated, inhibition, significance)","Dose [Inhibitor]: 0, 2.14 NMOL 15 D POST INITIATION DOSE FOLLOWED BY 21.4 NMOL 2/WK DURING WK 3-22 APPLIED 15 MIN PRIOR TO EACH PROMOTION","100%, 53%, 47%, not calculated"
same,"tumour outcome (control, treated, inhibition, significance)","Dose [Inhibitor]: 0, 2.14 NMOL 15 D POST INITIATION DOSE FOLLOWED BY 21.4 PMOL 2/WK DURING WK 3-22 APPLIED 15 MIN PRIOR TO EACH PROMOTION","100%, 100%, 0%, not significant"
same,"tumour outcome (control, treated, inhibition, significance)","Dose [Inhibitor]: 0, 2.14 NMOL 15 D POST INITIATION DOSE FOLLOWED BY 214 PMOL 2/WK DURING WK 3-22 APPLIED 15 MIN PRIOR TO EACH PROMOTION D","100%, 95%, 5%, not calculated"
same,"tumour outcome (control, treated, inhibition, significance)",Dose [Inhibitor]: 2.14 NMOL BEGINNING 15 D POST INITIATION DOSE AND EVERY THURS. AS WELL AS 21.4 NMOL 15 MIN PRIOR TO EACH PROMOTION DOSE,"100%, 65%, 35%, not calculated"
same,"tumour outcome (control, treated, inhibition, significance)",Dose [Inhibitor]: 2.14 NMOL BEGINNING 15 D POST INITIATION DOSE AND EVERY WED. AS WELL AS 21.4 NMOL 15 MIN PRIOR TO PROMOTION DOSE ON FRI.,"98%, 50%, 49%, not calculated"
